The values that follow are results of earlier work, collected in US20200368373A1, “OPTICAL IMAGING AGENTS TARGETING INFLAMMATION” (SORBONNE UNIVERSITE, priority 2018, published 2020).

The target of the data set is T1, selectin E (Mus musculus, UniProt Q00690).
T1 sequence (Q00690 22-612): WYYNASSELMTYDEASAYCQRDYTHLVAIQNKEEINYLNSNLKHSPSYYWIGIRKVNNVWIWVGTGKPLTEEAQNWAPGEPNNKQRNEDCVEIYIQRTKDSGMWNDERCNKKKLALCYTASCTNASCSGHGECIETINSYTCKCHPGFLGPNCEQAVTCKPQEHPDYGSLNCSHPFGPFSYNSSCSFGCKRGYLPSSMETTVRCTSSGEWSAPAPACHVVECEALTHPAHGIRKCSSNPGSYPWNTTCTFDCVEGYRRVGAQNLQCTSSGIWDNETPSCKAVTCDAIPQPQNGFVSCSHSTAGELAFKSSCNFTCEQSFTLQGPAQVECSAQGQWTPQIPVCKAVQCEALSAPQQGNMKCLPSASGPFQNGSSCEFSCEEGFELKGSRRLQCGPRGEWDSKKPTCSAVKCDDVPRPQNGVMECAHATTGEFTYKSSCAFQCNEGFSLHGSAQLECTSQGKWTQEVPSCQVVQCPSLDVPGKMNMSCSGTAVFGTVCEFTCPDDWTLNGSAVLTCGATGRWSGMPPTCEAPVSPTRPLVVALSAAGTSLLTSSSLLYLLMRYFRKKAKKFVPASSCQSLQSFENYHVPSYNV
The conditions noted are these: known in the art.

As to Sialyl Lewis X, the “affinity for selectin E” value was “high affinity”.
